Consider 16 molecules from ChEMBL document CHEMBL1201862, “PubChem BioAssay data set” (2004).

Test [1] can be described thus: HEp-2 cell cytotoxicity, dose response, cytotoxicity control for RSV inhibitor project, HTS (AID 2410). It counts as functional. Conditions: human respiratory syncytial virus.
The next test addresses T1, Aminopeptidase N (Plasmodium falciparum FcB1/Columbia, UniProt O96935).
T1 sequence (O96935 whole entry): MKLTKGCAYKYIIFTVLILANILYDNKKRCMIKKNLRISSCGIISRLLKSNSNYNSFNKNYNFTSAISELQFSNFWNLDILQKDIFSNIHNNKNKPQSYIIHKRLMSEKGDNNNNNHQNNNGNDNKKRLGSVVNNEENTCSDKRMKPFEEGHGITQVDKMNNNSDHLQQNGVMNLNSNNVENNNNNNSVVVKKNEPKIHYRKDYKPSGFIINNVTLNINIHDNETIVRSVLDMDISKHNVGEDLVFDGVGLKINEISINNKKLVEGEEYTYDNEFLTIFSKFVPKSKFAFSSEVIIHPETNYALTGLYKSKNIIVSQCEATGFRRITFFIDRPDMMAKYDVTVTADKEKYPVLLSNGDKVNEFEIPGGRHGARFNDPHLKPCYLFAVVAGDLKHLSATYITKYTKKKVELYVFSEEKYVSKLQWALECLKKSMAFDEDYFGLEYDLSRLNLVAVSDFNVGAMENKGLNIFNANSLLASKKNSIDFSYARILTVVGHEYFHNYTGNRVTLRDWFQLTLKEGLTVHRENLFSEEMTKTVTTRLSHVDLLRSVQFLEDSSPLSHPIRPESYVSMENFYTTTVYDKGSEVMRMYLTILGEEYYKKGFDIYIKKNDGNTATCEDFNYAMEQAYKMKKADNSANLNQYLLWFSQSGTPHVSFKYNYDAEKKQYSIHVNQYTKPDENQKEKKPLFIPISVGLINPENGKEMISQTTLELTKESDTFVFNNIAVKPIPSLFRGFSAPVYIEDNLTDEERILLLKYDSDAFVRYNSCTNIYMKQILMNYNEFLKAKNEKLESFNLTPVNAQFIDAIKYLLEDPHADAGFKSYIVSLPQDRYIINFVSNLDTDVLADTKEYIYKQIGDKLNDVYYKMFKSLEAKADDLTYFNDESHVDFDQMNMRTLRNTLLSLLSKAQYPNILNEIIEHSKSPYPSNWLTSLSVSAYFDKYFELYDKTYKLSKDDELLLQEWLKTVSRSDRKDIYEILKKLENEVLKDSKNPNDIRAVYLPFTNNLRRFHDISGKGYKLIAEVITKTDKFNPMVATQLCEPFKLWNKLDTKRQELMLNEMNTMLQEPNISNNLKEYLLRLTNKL
Kind of test: P. falciparum M1AAP inhibitors, biochemical, fluorogenic H-Leu-NHMec substrate, 1536-well (AID 1445). Further details: species or system Plasmodium falciparum 3D7, 3D7.

Test [2] has as its target Voltage-dependent T-type calcium channel subunit alpha-1H (Homo sapiens, UniProt O95180). It counts as functional.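 Note: channel activity triggered by adding a high calcium stimulation buffer.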
Test [3] in a line: Luminescence Cell-Based Dose Response to Identify Activators of Luciferase Translation or Activity in H4-C Neuroglioblastoma Cells. [Related pubchem assays: 1829 (Project Summary), 1814 (Primary HTS)]. It counts as functional.
A short description of test [4]: Luminescence Cell-Based Dose Confirmation to Identify Activators of 5'UTR Stem-Loop Driven Alpha-Synuclein mRNA Translation in H4 Neuroglioblastoma Cells. [Related pubchem assays: 1829 (Project Summary), 1814 (Primary HTS)]. It counts as functional.
A further test deals with HeLa. Put plainly: HeLa cell cytotoxicity, dose response, cytotoxicity control for MITF activator project, CellTiter-Glo luminescence, cherry-pick samples (AID 540259). Conditions: Homo sapiens. Format: functional, cell-based. In general terms: In ATP-based viability assays light output follows the ATP content of the culture.
A short description of test [5]: Luminescence Cell-Based Dose Response HTS to Identify Activators of Luciferase Translation or Activity in H4 […] Cells. [Related pubchem assays: 1829 (Project Summary), 1814 (Primary HTS)]. It counts as functional.
A short description of test [6]: Luminescence Cell-Based Dose Response to Identify Activators of 5'UTR Stem-Loop Driven Prion Protein mRNA Translation in H4-C Neuroglioblastoma Cells. [Related pubchem assays: 1829 (Project Summary), 1814 (Primary HTS)]. Format: functional.
The next test concerns H4. Put plainly: Luminescence Cell-Based Dose Response HTS to Identify Activators of 5'UTR Stem-Loop Driven Prion Protein mRNA Translation in H4 Neuroglioblastoma Cells. [Related pubchem assays: 1829 (Project Summary), 1814 (Primary HTS)]. Format: functional. Conditions: Homo sapiens.
The target in test [7] is T2, Alkaline phosphatase, tissue-nonspecific isozyme (Homo sapiens, UniProt P05186).
T2 sequence (P05186 whole entry): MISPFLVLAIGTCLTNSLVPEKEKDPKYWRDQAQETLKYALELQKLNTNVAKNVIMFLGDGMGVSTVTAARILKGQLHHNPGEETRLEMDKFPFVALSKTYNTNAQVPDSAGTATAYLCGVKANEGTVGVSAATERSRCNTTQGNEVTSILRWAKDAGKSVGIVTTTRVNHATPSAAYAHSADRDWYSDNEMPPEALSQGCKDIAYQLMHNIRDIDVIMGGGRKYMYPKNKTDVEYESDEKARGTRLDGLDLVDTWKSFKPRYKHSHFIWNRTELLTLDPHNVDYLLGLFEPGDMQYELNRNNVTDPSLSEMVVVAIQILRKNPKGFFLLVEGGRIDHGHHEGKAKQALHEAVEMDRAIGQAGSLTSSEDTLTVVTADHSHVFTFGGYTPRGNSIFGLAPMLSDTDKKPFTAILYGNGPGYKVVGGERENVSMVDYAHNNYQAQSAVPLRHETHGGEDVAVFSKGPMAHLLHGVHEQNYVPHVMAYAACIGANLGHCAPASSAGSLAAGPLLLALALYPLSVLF
Kind of test: human TNAP enzyme inhibitors, SAR follow-up, biochemical, luminescent, dose response (AID 1056).

In test [8] the target is Glyceraldehyde-3-phosphate dehydrogenase (Homo sapiens, UniProt P04406).
In the next test the target is T3, Coagulation factor XII (Homo sapiens, UniProt P00748).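 Note: activated factor XIIa alpha cleaving a fluorogenic AMC peptide substrate; inhibitor potency from loss of enzyme activity.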
T3 sequence (P00748 whole entry): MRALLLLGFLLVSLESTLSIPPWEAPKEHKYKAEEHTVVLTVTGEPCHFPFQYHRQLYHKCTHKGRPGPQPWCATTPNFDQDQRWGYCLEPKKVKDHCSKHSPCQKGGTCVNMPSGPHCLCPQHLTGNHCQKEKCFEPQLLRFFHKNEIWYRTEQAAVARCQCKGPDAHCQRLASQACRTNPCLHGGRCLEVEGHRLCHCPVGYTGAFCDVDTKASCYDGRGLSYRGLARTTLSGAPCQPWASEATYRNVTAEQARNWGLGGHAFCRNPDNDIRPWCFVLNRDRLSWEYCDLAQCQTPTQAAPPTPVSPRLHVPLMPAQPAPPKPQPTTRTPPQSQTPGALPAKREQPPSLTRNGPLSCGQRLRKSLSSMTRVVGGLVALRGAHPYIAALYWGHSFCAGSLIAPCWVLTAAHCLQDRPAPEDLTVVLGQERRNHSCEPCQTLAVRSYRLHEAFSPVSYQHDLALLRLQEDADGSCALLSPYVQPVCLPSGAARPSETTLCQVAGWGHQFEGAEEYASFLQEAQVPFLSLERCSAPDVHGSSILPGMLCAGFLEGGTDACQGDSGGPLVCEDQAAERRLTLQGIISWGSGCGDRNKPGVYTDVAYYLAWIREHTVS
It counts as functional.

Test [9] is described as follows: cytotoxicity in HEK-293T cells, dose response, cytotoxicity control for BCR NF-kB inhibitor project, luminescence, B-cell screen hits (AID 489021).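 Note: HEK-293T cells carrying an NF-kB luciferase reporter; cells exposed to compound for about 14 hours before viability readout.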 It counts as functional, cell-based.
A further test concerns INS1. Put plainly: beta cell apoptosis inhibitors, cytokine rescue, dose response, luminescence, retest (AID 449756).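 Note: cell death triggered by IL-1 beta plus TNF-alpha plus IFN-gamma mixture; protective hits raise ATP signal compared with cytokine alone wells.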 Format: functional, cell-based. Conditions: Rattus norvegicus.
The target in test [10] is T4, Luciferin 4-monooxygenase (Photinus pyralis, UniProt P08659). Kind of test: Counter Screen for Luciferase-based Assay Positives. [Related pubchem assays: 620, 618, 411 ]. A general note: Counterscreens check selectivity or assay interference.
Test [11] deals with T4, Luciferin 4-monooxygenase. Kind of test: firefly luciferase enzyme inhibitors, dose response, biochemical, luminescence (AID 1891).
Test [12] can be described thus: Luminescence-based cell-based high throughput dose response assay to identify activators of the DAF-12 from the parasite S. stercoralis (ssDAF-12). Format: functional.
The nature of test [13]: Luminescence Cell-Based Dose Confirmation HTS to Identify Inhibitors of Platelet Dense Granule Release. [Related pubchem assays: 1663 (Primary HTS), 1678 (Summary of Project)]. It counts as functional.
Another test deals with HT-1080. Kind of test: cytotoxicity in HT1080 fibrosarcoma cells, cell-based, fluorescence readout (AID 620). Conditions: Homo sapiens. It counts as functional.
A further test has as its target Prothrombin (Homo sapiens, UniProt P00734). Kind of test: Thrombin 1536 HTS Dose Response Confirmation. [Related pubchem assays: 1046 (Thrombin 1536 HTS; hits were confirmed in this assay)]. Format: functional.
Test [14] is described as follows: cytotoxicity toward NIH3T3 fibroblasts, dose response, counter-screen, cell-based, ATP luminescence, mouse fibroblasts (AID 2010).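 Note: cells exposed to compound for about 90 hours before reading.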 Format: functional.
A short description of test [15]: HepG2 cell cytotoxicity, dose response, cytotoxicity control for non-replicating M. tuberculosis project (AID 489018). Conditions: Mycobacterium tuberculosis. Format: functional.
Test [16] is described as follows: inhibitors of intracellular T. cruzi replication, confirmation, NIH3T3 host cells, beta-gal luminescence (AID 2044).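 Note: intracellular parasites grown in NIH/3T3 mouse fibroblasts as host cells; luminescent beta-galactosidase reporter signal from transgenic T. cruzi replicating inside host cells; inhibitors lower the luminescence signal.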 It counts as functional, cell-based.
The nature of test [17]: Vero E6 cell cytotoxicity, dose response, cytotoxicity control for non-replicating M. tuberculosis project, secondary assay (AID 492998). It counts as functional, VeroE6. Conditions: Vero C1008.
Test [18] is described as follows: THP-1 cell cytotoxicity, dose response, cytotoxicity control for non-replicating M. tuberculosis project (AID 489025). Format: functional.

The source made the active and inactive calls.

T4 sequence (P08659 whole entry): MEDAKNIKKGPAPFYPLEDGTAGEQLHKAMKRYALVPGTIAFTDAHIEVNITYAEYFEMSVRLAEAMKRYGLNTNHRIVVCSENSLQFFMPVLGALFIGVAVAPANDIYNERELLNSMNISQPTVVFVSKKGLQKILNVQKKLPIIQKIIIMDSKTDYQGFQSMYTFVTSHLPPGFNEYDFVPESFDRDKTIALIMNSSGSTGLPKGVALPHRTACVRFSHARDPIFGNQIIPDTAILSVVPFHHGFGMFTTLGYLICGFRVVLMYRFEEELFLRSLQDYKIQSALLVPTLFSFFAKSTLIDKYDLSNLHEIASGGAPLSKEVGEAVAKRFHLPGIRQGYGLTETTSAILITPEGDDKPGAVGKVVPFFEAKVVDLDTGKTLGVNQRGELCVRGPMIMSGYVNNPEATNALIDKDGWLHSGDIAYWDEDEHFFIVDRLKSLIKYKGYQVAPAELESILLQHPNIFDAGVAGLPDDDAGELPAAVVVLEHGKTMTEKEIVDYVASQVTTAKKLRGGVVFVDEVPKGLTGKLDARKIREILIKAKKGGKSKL
Sequence of Glyceraldehyde-3-phosphate dehydrogenase (P04406 whole entry): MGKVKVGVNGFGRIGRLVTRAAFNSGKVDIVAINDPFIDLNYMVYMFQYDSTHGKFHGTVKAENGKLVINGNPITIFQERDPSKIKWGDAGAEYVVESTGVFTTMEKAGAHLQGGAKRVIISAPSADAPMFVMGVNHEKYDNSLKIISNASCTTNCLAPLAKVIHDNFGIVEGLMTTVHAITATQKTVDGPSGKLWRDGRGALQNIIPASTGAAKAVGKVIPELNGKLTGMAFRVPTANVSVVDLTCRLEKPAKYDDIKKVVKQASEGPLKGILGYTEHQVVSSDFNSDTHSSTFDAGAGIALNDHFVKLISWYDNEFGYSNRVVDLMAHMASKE
Sequence of Voltage-dependent T-type calcium channel subunit alpha-1H (O95180 whole entry): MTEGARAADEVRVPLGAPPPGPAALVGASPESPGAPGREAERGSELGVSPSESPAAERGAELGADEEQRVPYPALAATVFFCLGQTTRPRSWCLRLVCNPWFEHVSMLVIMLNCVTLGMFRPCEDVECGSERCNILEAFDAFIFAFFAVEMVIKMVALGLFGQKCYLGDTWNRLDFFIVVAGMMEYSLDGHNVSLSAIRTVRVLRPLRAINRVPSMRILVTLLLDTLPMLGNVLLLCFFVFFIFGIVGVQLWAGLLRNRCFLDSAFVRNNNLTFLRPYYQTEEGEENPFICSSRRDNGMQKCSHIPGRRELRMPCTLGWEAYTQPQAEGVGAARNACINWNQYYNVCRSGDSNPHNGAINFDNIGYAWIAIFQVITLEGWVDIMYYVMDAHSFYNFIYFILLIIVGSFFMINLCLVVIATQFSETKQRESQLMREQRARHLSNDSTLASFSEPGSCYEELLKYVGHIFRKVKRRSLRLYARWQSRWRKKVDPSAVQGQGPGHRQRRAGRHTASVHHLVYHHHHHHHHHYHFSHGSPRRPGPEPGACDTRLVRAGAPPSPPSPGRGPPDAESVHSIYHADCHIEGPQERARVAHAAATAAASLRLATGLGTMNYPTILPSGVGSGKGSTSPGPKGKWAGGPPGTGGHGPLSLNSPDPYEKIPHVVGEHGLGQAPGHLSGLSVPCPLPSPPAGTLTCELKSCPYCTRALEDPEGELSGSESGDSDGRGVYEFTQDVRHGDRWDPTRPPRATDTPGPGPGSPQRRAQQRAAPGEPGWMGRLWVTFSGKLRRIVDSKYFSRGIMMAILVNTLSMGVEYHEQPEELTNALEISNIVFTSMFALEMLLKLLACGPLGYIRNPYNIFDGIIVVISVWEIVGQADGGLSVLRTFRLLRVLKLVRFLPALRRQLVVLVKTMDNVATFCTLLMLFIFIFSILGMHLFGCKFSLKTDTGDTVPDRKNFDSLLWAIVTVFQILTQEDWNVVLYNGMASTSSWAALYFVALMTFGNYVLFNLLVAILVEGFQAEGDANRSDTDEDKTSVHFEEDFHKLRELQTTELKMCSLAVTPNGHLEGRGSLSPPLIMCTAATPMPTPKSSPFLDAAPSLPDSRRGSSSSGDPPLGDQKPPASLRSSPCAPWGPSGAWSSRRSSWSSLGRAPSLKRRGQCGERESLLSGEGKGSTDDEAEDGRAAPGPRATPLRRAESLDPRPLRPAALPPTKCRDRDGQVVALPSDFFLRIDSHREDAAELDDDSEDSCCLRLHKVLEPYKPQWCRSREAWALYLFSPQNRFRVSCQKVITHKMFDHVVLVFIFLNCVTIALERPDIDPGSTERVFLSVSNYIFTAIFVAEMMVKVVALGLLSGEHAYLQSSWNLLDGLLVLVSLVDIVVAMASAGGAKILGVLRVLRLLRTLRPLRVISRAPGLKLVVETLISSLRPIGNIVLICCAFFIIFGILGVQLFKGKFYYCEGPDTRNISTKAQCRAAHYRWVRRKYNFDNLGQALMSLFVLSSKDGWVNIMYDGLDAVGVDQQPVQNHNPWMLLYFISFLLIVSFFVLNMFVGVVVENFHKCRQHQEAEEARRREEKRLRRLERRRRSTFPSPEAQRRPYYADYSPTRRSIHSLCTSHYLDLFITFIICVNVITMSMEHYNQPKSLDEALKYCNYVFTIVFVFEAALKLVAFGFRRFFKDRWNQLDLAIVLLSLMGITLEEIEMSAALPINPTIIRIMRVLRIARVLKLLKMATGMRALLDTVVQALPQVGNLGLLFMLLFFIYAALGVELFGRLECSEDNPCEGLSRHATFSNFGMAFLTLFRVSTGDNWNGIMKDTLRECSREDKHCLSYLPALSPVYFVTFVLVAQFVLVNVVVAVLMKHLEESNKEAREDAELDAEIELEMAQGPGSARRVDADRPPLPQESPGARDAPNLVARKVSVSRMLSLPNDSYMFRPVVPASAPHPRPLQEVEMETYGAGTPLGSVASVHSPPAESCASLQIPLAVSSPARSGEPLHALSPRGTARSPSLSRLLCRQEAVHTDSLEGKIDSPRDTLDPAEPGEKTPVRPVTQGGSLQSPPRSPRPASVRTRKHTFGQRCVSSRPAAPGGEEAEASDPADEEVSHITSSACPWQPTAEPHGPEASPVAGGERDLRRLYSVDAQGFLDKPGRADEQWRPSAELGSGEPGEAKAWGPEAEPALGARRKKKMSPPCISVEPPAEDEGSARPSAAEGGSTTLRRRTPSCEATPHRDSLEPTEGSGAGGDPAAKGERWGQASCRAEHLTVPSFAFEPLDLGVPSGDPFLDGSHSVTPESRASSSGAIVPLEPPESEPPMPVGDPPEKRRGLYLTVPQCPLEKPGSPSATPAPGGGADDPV

With `COc1ccc(/C=C2/SC(=O)N(NS(=O)(=O)c3ccccc3)C2=S)cc1OC`, the CC50 (commonly the concentration that lowers cell viability or growth by half) in test [1] was 31.5 µM (active). Further, the results for the IC50 in “cells” and on Aminopeptidase N were 18.8 µM (active) and 30.5 µM (active), respectively.

In the case of `Cc1ccc(CCNC(=O)C[S+]([O-])Cc2nc(-c3cccc(C)c3)oc2C)cc1` (centres undefined), the EC50 (commonly the concentration needed to bring the measured effect to its halfway point) in test [2] is 4.04 µM (active).

As to `Clc1ccc(-c2cn3c(n2)CCC3)cc1`, the EC50 in test [3] is 0.299 µM (active); in test [4], 0.319 µM (active); in [5] it was < 0.1 µM (active); in test [6], 0.397 µM (active); with H4 it was > 120 µM (not active). Moreover, the AC50 (commonly the concentration giving half of the maximal activity seen) in the test on HeLa was 173 µM (active).

On to `CCOC(=O)c1[nH]nc2c1COc1ccccc1-2`, for which the results for the IC50 in test [7] and in test [8] were > 100 µM (inactive) and > 100 µM (not active), respectively.

For `CN(C)C1=C(Cl)C(=O)N(c2nnc(Cc3ccccc3)[nH]2)C1=O`, the IC50 (usually the concentration that gives 50% inhibition) in [7] was 4.49 µM (active); in test [8] it was > 100 µM (not active).

For `COc1ccc(Nc2nnc(SC(C(=O)Nc3cc(C)ccc3C)c3ccccc3)s2)cc1` (centres undefined), on Coagulation factor XII, the IC50 was > 50 µM (inactive).

For `CCN1C(=O)c2cccc3c(S(=O)(=O)NCC4CCCO4)ccc1c23` (centres undefined), the IC50 in test [9] is > 80 µM (inactive).

As for `O=C(Nc1ccc(OCC(=O)N2CCC(Cc3ccccc3)CC2)cc1)c1ccco1`, the AC50 in the test with INS1 is 5.93 µM (active). The EC50 in test [2] was 2.36 µM (active).

In the case of `Oc1cccc(-c2nc3ccccc3s2)c1`, the EC50 is 12.4 µM (active) in test [10], 1.83 µM (active) in test [11], 22.2 µM (active) in [13] and > 50 µM (not active) in the test on HT-1080. Besides, the IC50 in test [12] is > 67.6 µM (inactive); at Prothrombin, > 50 µM (not active).

On to `Nc1ccc(-c2cc(C(=O)O)n[nH]2)cc1`, for which the IC50 in test [7] is 8.69 µM (active); in test [8], > 100 µM (not active).

Consider `CCCCCCn1c(-c2ccco2)nc2oc3cc(OC)ccc3c(=O)c2c1=O`, for which the IC50 in [9] is > 80 µM (inactive).

Take `CN1CCN(c2ncnc3c2cnn3-c2ccc(Cl)cc2)CC1`: the figures for the EC50 (in [10]; in the test with HT-1080) were 0.55 µM (active) and > 50 µM (not active), respectively.

On to `O=C(Nc1ccc(C(F)(F)F)cc1[N+](=O)[O-])O[C@H]1[C@H](Cc2ccccc2)NS(=O)(=O)[C@H]2C[C@@H]3C=C[C@]12O3`, for which the CC50 in [1] is 23 µM (active). Besides, in the test “cells”, the IC50 was 24.6 µM (active).

Take `CS(=O)(=O)N(CC(=O)N/N=C/c1ccccc1C(=O)O)c1cccc(Cl)c1Cl`: the IC50 at Coagulation factor XII was > 50 µM (inactive).

As for `C/C(=N\NC(=O)c1ccc(CN2CCc3ccccc3C2)cc1)c1ccccc1O`, the figures for the EC50 in test [14] and in [16] were 3.88 µM (active) and 1.06 µM (active), respectively. For the same molecule, the CC50 was 10.7 µM (active) in test [15], 13.9 µM (active) in test [17] and 15.3 µM (active) in [18].

With `O=C(/C=C\Nc1ccccn1)c1ccc(Cl)cc1`, the EC50 in test [10] was 2.45 µM (active); with HT-1080, > 50 µM (not active).
